# Test results: US9511074B2, “Methods of treating disorders associated with protein polymerization” (UNIVERSITY OF PITTSBURGH—OF THE COMMONWEALTH SYSTEM OF …, priority 2009, dated 2016)
# Legend:
# [1] = system: AT Saar in the HTO/Saar cell line; assay: Levels of AT Saar variant in the HTO/Saar cell line; format: cell-based, human; settings: FIG. 3D
# From the text: (§1) Cell Lines The human epidermal HeLa cell line with doxycycline-regulated expression of ATZ (HTO/Z) has been described previously (1). HTO/M and HTO/Saar are HeLa cell lines with doxycycline-regulated expression of wild type AT and the AT Saar variant, respectively (1). A murine embryonic fibroblast cell line (MEF) with targeted disruption of Atg5 (2) was engineered for stable expression of ATZ using the previously described pRc/RSV-ATZ expression plasmid (3). A wild type MEF cell line was also engineered for stable expression of ATZ in the same way to serve as control. For experiments with CBZ, the inducible cell lines were cultured in the absence of doxycycline for at least 4 weeks for maximal expression of AT. The cells were then subcultured into separate monolayers in fresh complete growth medium and incubated for 48 hours in the absence or presence of CBZ or rapamycin (RAP). CBZ or RAP were added to the growth medium. The duration of incubation with CBZ was determined to be optimal at 48 hours based on experiments in which the duration was varied from 12 to 72 hours. Doses of CBZ were based on previous studies of its effects in cell lines (5,6). […]
# (§2) For immunoblot analysis to detect AT, GAPDH or LC3, cells were lysed in 50 mM Tris-HCl, 150 mM NaCl, 1% NP-40, pH 8.0. Protein levels were quantified using the BCA protein assay (Pierce Biotechnology, Rockford, Ill.). […]
# [2] = system: BiP in the HTO/Z cell line; assay: Steady state levels of BiP in the HTO/Z cell line (immunoblot); format: cell-based, human; settings: FIG. 1D
# From the text: as §1, §2
# LC3 = LC3 conversion in the HTO/Z cell line by immunoblot; format: cell-based, human; settings: with or without lysosomal enzyme inhibitors
# Experimental: For experiments in which proteasomal inhibitors were used, MG132 was used at 30 μM and lactacystin at 10 μM for the last 6 hours of the incubation with CBZ or control. Cells that were incubated with MG132 or lactacystin alone served as control to validate that the proteasome was inhibited. For investigation of LC3 conversion, lysosomal inhibitors (E64D and pepstatin A at 20 μg/ml) were added to the medium for the last 4 hours of the incubation with CBZ or control. […] If the number of separate experiments done in the cell line models is not specifically indicated in the text or figure legend, at least 3 separate experiments were done in each case.
# For immunoblot analysis to detect AT, GAPDH or LC3, cells were lysed in 50 mM Tris-HCl, 150 mM NaCl, 1% NP-40, pH 8.0. Protein levels were quantified using the BCA protein assay (Pierce Biotechnology, Rockford, Ill.). 10-50 μg samples were loaded onto 7.5% precast gels. PVDF membranes were blocked in TBS, 0.5% Tween 20 (TBST), 5% milk and then incubated with primary antibody in 5% milk TBST solution. Horseradish peroxidase anti-goat Ig or anti-mouse Ig (Jackson Labs, Bar Harbor, Me.) were used as secondary antibodies in TBST. Blots were visualized with Super Signal West Dura or West Femto from Pierce.
# human AT = assay: Serum levels of human ATZ in PiZ mice by ELISA; format: in vivo, mouse; settings: CBZ 250 mg/kg/day for 2 weeks
# Experimental: For ELISA on mouse serum specimens, Nunc Maxisorp plates were first coated with goat anti-human AT (Bethyl), then blocked in PBS-Tween20 containing 5% nonfat milk. Serum samples were loaded into the wells in 1:20,000 dilution using purified human AT serial dilutions (1.56 to 100 ng/ml) as a standard. Rabbit-anti human AT (Dako) was used as […], and goat anti-rabbit IgG-HRP (Dako) a secondary antibody. Protein levels were detected with OPD (Sigma).
# PiZ×IKKbDhep mouse = assay: Hepatic hydroxyproline in PiZ×IKKbDhep mouse model; format: in vivo; settings: FIG. 7
# From the text: Transgenic Mice PiZ mice that have been bred into the C57/BL6 background have been described previously (1). For the second and third series of experiments with CBZ we used PiZ mice that were re-derived onto the FVB/N background for a move into a new animal facility. The transgene that was used to generate the PiZ mouse is a genomic fragment of DNA that contains the coding regions of the ATZ gene together with introns and ˜2 kilobases of upstream and downstream flanking regions (10). […] In this perspective it is not an exact phenocopy of the classical form of AT deficiency. In particular it cannot be a model for the loss-of-function mechanisms associated with the classical form of AT deficiency. […]
# Histology Sections of liver tissue were stained with hematoxylin and eosin, PAS, PAS after diastase treatment, TUNEL, PCNA, Ki67 and Sirius Red using standard techniques (18). […] The number of inflammatory nodules, AT-containing globules and autophagosomes were each quantified blindly by counting cells in 6 microscopic fields of 10 different sections for each liver. The number of nuclei, as determined by Hoechst staining, was used to exclude the possibility that different numbers of cells were counted in liver sections from mice treated with CBZ as compared to controls. Hepatic hydroxyproline concentration was determined by a well-established protocol (20,21).
smiles,measurement,setting,value
"NC(=O)N1c2ccccc2C=Cc2ccccc21 [CBZ, 5H-dibenz [b,f]azepine-5-carboxamide]",levels of AT Saar (soluble fraction),[1],degraded by CBZ in a manner almost identical to that of ATZ
same,BiP levels,[2],did not affect
same,LC3-II to LC3-I ratio,LC3,increased in a dose-dependent manner
same,serum concentrations of human AT,human AT,not significantly affected
same,hepatic hydroxyproline concentration,PiZ×IKKbDhep mouse,decrease
